Series [1] concerns P. aeruginosa PAO1 (EYFP) pellicle biofilms. As to the kind of experiment: Pellicle biofilm assay, viable cell enumeration. The class given is cell-based, Pseudomonas aeruginosa.
Protocol: Here, we directly compare the antibiofilm activity of D-CONGA and D-CONGA-Q7 using a mature pellicle biofilm of P. aeruginosa.[22] […] To determine the susceptibility of pellicle biofilms to D-CONGA and D-CONGA-Q7, we cultured 2-day-old biofilms as described in the Methods section. The coverslip-adhered biofilms were exposed to challenge solution for 24 h prior to staining with SYTOX red and imaging with CLSM for EYFP, which indicates live cells, and for SYTOX Red which stains dead cells and extracellular DNA. […] The % cell survival was quantitated in two ways: (i) COMSTAT was used to compare biofilm biomass in CLSM images by estimating the biofilm biovolume, which is calculated as the overall volume/substratum area (μm^3/μm^2).[24],[25] […] (ii) The biofilms were dispersed mechanically for subsequent enumeration of viable cells such that % survival is expressed as the ratio (CFUuntreated biofilm/CFUtreated biofilm).
The susceptibility of biofilm-embedded P. aeruginosa cells to the antimicrobial peptides was studied as reported previously[23] using a P. aeruginosa PAO1 strain expressing enhanced yellow fluorescent protein (EYFP).[22] The EYFP-expressing P. aeruginosa strain was routinely grown in Pseudomonas Isolation (PI) media (20 g/L peptone, 0.3 g/L, MgCl2·6H2O, 10 g/L, K2SO4, 25 mg/L irgasan, and 20 mL/L glycerol, pH 7.0). […] Iron supplementation was carried out by addition of a small volume of filter-sterilized 10 mM (NH4)2Fe(SO4)2 (pH ∼ 2.0) solution.
In brief: Starter cultures (5 mL PI media supplemented with 10 μM Fe) were grown (14 h) from a single-colony shaking (220 rpm) at 37 °C. To grow the pellicle biofilms, starter cultures were diluted to OD600 = 0.001 in 4 mL of PI media supplemented with 20 μM Fe, placed in 35 × 10 mm Petri dishes, and incubated statically at 30 °C for 48 h. The pellicles were harvested using circular (1.5 cm diameter) glass coverslips by gently allowing the surface of a coverslip to contact the biofilm at the air–liquid interface. […]
Series [2] is described as follows: Post-surgery mouse monitoring (weight, wound condition). As to conditions: monitored every day for 14 days, four mice per group, P. aeruginosa and MRSA infected mice, versus vehicle control.
Protocol: In this model, a deep surgical punch wound, created on the dorsal surface of healthy adult CD1 mice is stabilized with a silicone ring to prevent healing by contraction, and then, covered with a Tegaderm dressing. The wound bed, with a volume of ∼20 μL, is immediately infected with 1 × 10^5 cfu of luciferase-producing P. aeruginosa or MRSA.
Female CD1 mice at 8–12 weeks of age were anesthetized via intraperitoneal injection of ketamine and xylazine at doses of 90 and 10 mg/kg, respectively. Their dorsal surface was depilated using an electric razor and scrubbed with a chlorhexidine solution. A full-thickness biopsy wound was generated using a 5 mm biopsy punch (Integra). To function as a splint for the wound, a 0.5 mm thick silicon (Invitrogen) ring with an outer diameter of 10 mm and a hole with a 5 mm diameter was placed over the wound and held to the skin with a surgical adhesive. The entire silicon ring was then covered with Tegaderm (3 M), and further adhered using 4-0 braided silk interrupted sutures (Ethicon). Mice were given 0.05 mg/kg buprenorphine immediately following surgery as well as daily for the next 2 days to alleviate pain from the procedure. […] Weight, activity, posture, coat condition, and wound condition were monitored each day throughout the duration of the experiment to ensure the well-being of each mouse. […]
Series [3] deals with wound infections. As to the kind of experiment: Murine wound model, once or twice per day dosing and viscous polymer formulations. The conditions noted are these: 75 μg of peptide in 20 μL of buffer (PBS). The class given is in vivo, mice. An excerpt:
Preliminary data had shown that once per day treatments in a simple aqueous vehicle were ineffective against wound infections in this model, see Figure S2. Three times per day is required for efficacy in simple media, Figure 8. Therefore, we also tested the effectiveness of D-CONGA-Q7 formulated in aqueous suspensions of carboxymethyl cellulose and Xanthan gum, which are anionic carbohydrate polymers that create highly viscous solutions at ∼1% w/v concentration. […] Clinically useful formulations of these peptides may be straightforward to develop.
Figure S2. Activity of D-CONGA-Q7 in wound model using 1x and 2x per day administration. Experiments were performed as described in main text, except that treatments with 75 μg of peptide in 20 μL of buffer were administered only once or twice per day. Bacterial […]
in PBS. Also, Tegaderm biofilm formation is not inhibited by peptide under these conditions.
Results for three times per day administration are shown in Figs. 8&9 of the main manuscript.
(1 picture or pasted object on this page, not shown here)
Radial diffusion results Murine wound infection
A C 6 hour incubation E 10 Once per day treatment with:
1.0 Buffer and viscous polymers D-CONGA-Q7 in 0.75% CMC
Peptide concentration (µM)
B D 24 hour incubation Once per day treatment with:
Buffer and viscous polymers 0.75% XG Vehicle only
1.0% XG D-CONGA-Q7 in 0.75% XG […]

For series [4], the system named is P. aeruginosa and MRSA wound biofilms. Put plainly: SEM of Tegaderm wound dressing, both bacteria pooled. The class given is in vivo, CD1 mice. The conditions noted are these: 68 images from treated animals, Day 3 Tegaderm. The source says: (§1) The Tegaderm dressing used in the murine wound model is an excellent substrate for bacterial adhesion and biofilm formation.[5],[15] […] We imaged three to four randomly selected areas of each Tegaderm sample at two magnifications each. Each image is scored for the presence/absence of bacterial cells, either rod-shaped P. aeruginosa, ∼1 μm in diameter, or spherical MRSA cocci, ∼0.9 μm in diameter. Images are also scored for biofilm-like structures defined by having multiple bacteria embedded in an obvious three-dimensional matrix. These distinctions are shown by representative images of the fixed Tegaderm dressings in Figure 9A,B. In vehicle control samples, we observed that P. aeruginosa frequently forms an open, three-dimensional matrix in which many cells are entangled in μm-long fibers. We observed that MRSA also forms a matrix in which cells are close-packed in strands that comprise a large-scale mesh. Every SEM image (68/68) from vehicle control samples of the two bacteria contained obvious visible bacteria, and most of these images contained ≥50 individual cells. In samples from peptide-treated animals, 57 of 68 (84%) of images had no visible bacteria. […] We performed a statistical analysis of observed bacteria and biofilms using the binomial equation. P-values for all comparisons of treated vs vehicle were less than 0.001. […]

For series [5], the system named is Acinetobacter baumannii (PDR) Tulane isolate. As to conditions: PDR) Tulane isolate.
Series [6] concerns K. pneumoniae clinical isolates. Put plainly: microbe, parasite or virus in culture. The conditions noted are these: clinical isolates. As for the experimental part: Subcultures, prepared by inoculating 25 mL of fresh tryptic soy broth (TSB) with 200 μL of an overnight culture, were grown to log phase (OD600 = 0.3–0.6), after which cell counts were determined by measuring the OD600 (1.0 = 5 × 10^8 CFU/mL for E. coli, 4 × 10^8 CFU/mL for K. pneumoniae, 4 × 10^8 CFU/mL for P. aeruginosa, 1.5 × 10^8 CFU/mL for S. aureus). Bacterial cells were diluted to appropriate concentrations in TSB. We used the following clinical bacterial isolates of Klebsiella pneumoniae in this study: Strains KP6, KP46, NDM-1, KP396, and KP398 have been previously described.[43] ST58 strains C2, C3, and I2 are also described.[41] […] MRSA, […] S. aureus strain, is SAP400, a USA400 strain of community-acquired MRSA. […] The second independent set of K. pneumoniae isolates are previously described.[20],[21]
The antibiotics were serially diluted by a factor of 2:3 horizontally across 96-well plates from Corning, 25 μL per well. One column was reserved for controls. For the assays performed in the presence of RBC, type O+ human RBCs at 0 or 2.5 × 10^9 cells/mL were added in 50 μL aliquots to all wells. […] To assess bacterial growth in the assays with RBC, the OD600 was measured after a second-day inoculation with 10 μL of solution from the original plate added to 100 μL of sterile TSB followed by overnight incubation.
Experiments were repeated four to eight times independently, with pairs of replicate measurements on each 96-well plate. After overnight growth, optical densities were measured at 660 nm and the sterilized wells were identified by having O.D. < 0.08. Nonsterilized wells were nearly opaque with OD > 0.6. For each measurement, we recorded the largest dilution that sterilized the bacteria. Statistics are done on dilution numbers, rather than calculated concentrations, because only the former have normal distributions.

Series [7] concerns P. aeruginosa wound biofilms. Put plainly: SEM of Tegaderm wound dressing, P. aeruginosa. The conditions noted are these: dressing removed on Day 3, treated three times a day. The class given is in vivo, CD1 mice.
From the text: as §1

From paper PMC10111420, “Optimization of Host Cell-Compatible, Antimicrobial Peptides Effective against Biofilms and Clinical Isolates of Drug-Resistant Bacteria” (ACS Infectious Diseases, 2023) come the findings set out here.

Values after ≈ are worked out from the molar mass of the structure shown. Where a SMILES comes first, the peptide text is derived from it. [ ]: non-standard residue; d: D form. Bounds are passed on as bounds.

Take `CC(C)C[C@@H](NC(=O)[C@@H](CCC(N)=O)NC(=O)[C@@H](CCCNC(=N)N)NC(=O)[C@@H](CCCNC(=N)N)NC(=O)[C@@H](C)NC(=O)[C@@H](Cc1c[nH]c2ccccc12)NC(=O)[C@@H](CCCNC(=N)N)NC(=O)[C@H](N)CCCNC(=N)N)C(=O)N[C@H](C)C(=O)N[C@H](Cc1ccccc1)C(=O)N[C@H](C)C(=O)N[C@H](Cc1ccccc1)C(=O)N[C@H](CCCNC(=N)N)C(=O)N[C@H](CCCNC(=N)N)C(N)=O` [D-CONGA-Q7] (H-[dR][dR][dW][dA][dR][dR][dQ][dL][dA][dF][dA][dF][dR][dR]-NH2; N-terminus assumed): in series [1] (2 μM, 48 h pellicle biofilm, 24 h challenge, dispersing and counting viable cells), the “Reduction of biofilm CFU” value turned out to be 70%. The “Reduction of viable biofilm bacteria” value in series [1] (8 μM peptide, 2-day-old pellicle biofilm, 24 h treatment in AB challenge media, 30 °C) is given as ≥ 90%. In addition, in series [2], the “Weight loss of mice” value is on record as “did not demonstrate any differential weight loss” and the Wound condition score entry is “no significant difference”. In series [3], the “Tegaderm biofilm formation, once or twice per day administration” value is recorded as “not inhibited” and the “Wound bacterial burden, once or twice per day administration” value is on record as “not reduced significantly”. The “Biofilm observed in SEM images” value in series [4] is on record as “no biofilm was observed”. The “MIC, AB (PDR)Tulane” value in series [5] is 1.1 µM (≈ 2.08 µg/mL). Further, in series [6], the “MIC, KP 6” value amounted to 3.2 µM (≈ 6.05 µg/mL); the “MIC, KP 46” value was 2.2 µM (≈ 4.16 µg/mL); the “MIC, KP 398” value was 3.8 µM (≈ 7.18 µg/mL); the “MIC, KP (CRE)” value is 2.0 µM (≈ 3.78 µg/mL). Besides, in series [6], the “MIC, KP ATCC 33495” value was 2.4 µM (≈ 4.53 µg/mL); the “MIC, KP ST258 C2” value worked out at 8.9 µM (≈ 16.8 µg/mL); the “MIC, KP ST258 C3” value came out at 14 µM (≈ 26.4 µg/mL); the “MIC, KP ST258 I2” value was 1.4 µM (≈ 2.64 µg/mL). Further, the “MIC, KP ST396” value in series [6] was 1.9 µM (≈ 3.59 µg/mL). Further, in series [7] (images with bacteria / all random images), the “P. aeruginosa: Bacteria present (SEM images of Tegaderm)” value is 8/33. In addition, the “P. aeruginosa: Biofilm present (SEM images of Tegaderm)” value in series [7] (images with biofilm / all random images) is recorded as 0/33.
